Measured values published in the NIST ThermoML archive (doi:10.1016/j.jct.2012.03.034).
Numbers after ± are expanded uncertainties.

Experiments:
[1] = xn = mol fraction of the nth substance listed; conditions: 101 kPa, Liquid, x2 = 0; for speed of sound: Linear variable-path acoustic interferometer; for mass density: Vibrating tube method; for viscosity: dual vibrating plate viscometer, AandD Co. Ltd Model SV-10
[2] = 298.15 K, 101.33 kPa, Liquid; for speed of sound: Linear variable-path acoustic interferometer; for mass density: Vibrating tube method; for viscosity: dual vibrating plate viscometer, AandD Co. Ltd Model SV-10

SMILES: CN1CCCC1=O [N-methylpyrrolidone] + CC(=O)[O-].CC[NH2+]CC
- speed of sound ([1]; 298.15 K): 1572 ± 2 m/s
- mass density ([1]; 298.15 K): 1025.9 ± 0.3 kg/m3
- viscosity ([1]; 298.15 K): 1.66 ± 0.03 mPa·s
- speed of sound ([1]; 303.15 K): 1552 ± 2 m/s
- mass density ([1]; 303.15 K): 1023.74 ± 0.3 kg/m3
- viscosity ([1]; 303.15 K): 1.49 ± 0.03 mPa·s
- speed of sound ([1]; 308.15 K): 1528 ± 2 m/s
- mass density ([1]; 308.15 K): 1019.25 ± 0.3 kg/m3
- viscosity ([1]; 308.15 K): 1.39 ± 0.03 mPa·s
- speed of sound ([1]; 313.15 K): 1520 ± 2 m/s
- mass density ([1]; 313.15 K): 1014.74 ± 0.3 kg/m3
- viscosity ([1]; 313.15 K): 1.31 ± 0.03 mPa·s

SMILES: CC[NH+](CC)CC.O=S(=O)([O-])O [triethylammonium hydrogen sulfate]
- speed of sound [2]: 1874 ± 2 m/s
- mass density [2]: 1142.89 ± 0.45 kg/m3
- viscosity [2]: 235 ± 13 mPa·s

SMILES: CC(=O)O.CCN(CC)CC [triethylammonium acetate]
- speed of sound [2]: 1840 ± 2 m/s
- mass density [2]: 1015.86 ± 0.32 kg/m3
- viscosity [2]: 24.14 ± 0.39 mPa·s

SMILES: CC[NH2+]CC.O=S(=O)([O-])O [diethylammonium hydrogen sulfate]
- speed of sound [2]: 1432 ± 2 m/s
- mass density [2]: 1283.95 ± 0.61 kg/m3
- viscosity [2]: 34.1 ± 0.63 mPa·s

SMILES: CN1CCCC1=O [N-methylpyrrolidone]
- speed of sound [2]: 1552 ± 2 m/s
- mass density [2]: 1025.9 ± 0.31 kg/m3
- viscosity [2]: 1.66 ± 0.03 mPa·s

SMILES: CN1CCCC1=O [N-methylpyrrolidone] + CC[NH2+]CC.O=S(=O)([O-])O
- speed of sound ([1]; 298.15 K): 1572 ± 2 m/s
- mass density ([1]; 298.15 K): 1025.9 ± 0.3 kg/m3
- viscosity ([1]; 298.15 K): 1.66 ± 0.03 mPa·s
- speed of sound ([1]; 303.15 K): 1552 ± 2 m/s
- mass density ([1]; 303.15 K): 1023.74 ± 0.3 kg/m3
- viscosity ([1]; 303.15 K): 1.49 ± 0.03 mPa·s
- speed of sound ([1]; 308.15 K): 1528 ± 2 m/s
- mass density ([1]; 308.15 K): 1019.25 ± 0.3 kg/m3
- viscosity ([1]; 308.15 K): 1.39 ± 0.03 mPa·s
- speed of sound ([1]; 313.15 K): 1520 ± 2 m/s
- mass density ([1]; 313.15 K): 1014.74 ± 0.3 kg/m3
- viscosity ([1]; 313.15 K): 1.31 ± 0.03 mPa·s

SMILES: CC(=O)[O-].CC[NH2+]CC [diethylammonium acetate]
- speed of sound [2]: 1608 ± 2 m/s
- mass density [2]: 1021.41 ± 0.32 kg/m3
- viscosity [2]: 16.36 ± 0.23 mPa·s

SMILES: CN1CCCC1=O [N-methylpyrrolidone] + CC(=O)O.CCN(CC)CC
- speed of sound ([1]; 298.15 K): 1572 ± 2 m/s
- mass density ([1]; 298.15 K): 1025.9 ± 0.3 kg/m3
- viscosity ([1]; 298.15 K): 1.66 ± 0.03 mPa·s
- speed of sound ([1]; 303.15 K): 1552 ± 2 m/s
- mass density ([1]; 303.15 K): 1023.74 ± 0.3 kg/m3
- viscosity ([1]; 303.15 K): 1.49 ± 0.03 mPa·s
- speed of sound ([1]; 308.15 K): 1528 ± 2 m/s
- mass density ([1]; 308.15 K): 1019.25 ± 0.3 kg/m3
- viscosity ([1]; 308.15 K): 1.39 ± 0.03 mPa·s
- speed of sound ([1]; 313.15 K): 1520 ± 2 m/s
- mass density ([1]; 313.15 K): 1014.74 ± 0.3 kg/m3
- viscosity ([1]; 313.15 K): 1.31 ± 0.03 mPa·s

SMILES: CN1CCCC1=O [N-methylpyrrolidone] + CC[NH+](CC)CC.O=S(=O)([O-])O
- speed of sound ([1]; 298.15 K): 1572 ± 2 m/s
- mass density ([1]; 298.15 K): 1025.9 ± 0.3 kg/m3
- speed of sound ([1]; 303.15 K): 1552 ± 2 m/s
- mass density ([1]; 303.15 K): 1023.74 ± 0.3 kg/m3
- speed of sound ([1]; 308.15 K): 1528 ± 2 m/s
- mass density ([1]; 308.15 K): 1019.25 ± 0.3 kg/m3
- viscosity ([1]; 308.15 K): 1.39 ± 0.03 mPa·s
- speed of sound ([1]; 313.15 K): 1520 ± 2 m/s
- mass density ([1]; 313.15 K): 1014.74 ± 0.3 kg/m3
- viscosity ([1]; 313.15 K): 1.31 ± 0.03 mPa·s
